Data set [1] in a line: Accelerated Stability Screening Method (tablets stored at 85° C., degradation by HPLC). As to conditions: additive to tablets of substituted 3,5-diene steroidal compounds.
Method: The stability of N-t-butyl-androst-3,5-diene-17β-carboxamide-3-carboxylic acid (compound A) in various tablet formulations was determined by HPLC analysis.
In Experiment 1 Compound A, microcrystalline cellulose, lactose, corn starch and sodium starch glycolate shown in Table I below, were mixed in the proportions shown. […] The tablets thus prepared were placed in stability chamber at 85° and the results of the stability test were recorded in Table 2 below.
The tablets thus prepared were placed in stability chamber at 85° C. and the results of the stability test were recorded in Table 3 below.
The tablets thus prepared were placed in stability chamber at 85° C. and the results of the stability test were recorded in Table 5 below.
In Experiment 4 Standard Granulation and BHT (for Batch 8) shown in Table 6 below, or stearic acid and BHT (for Batch 9) shown in Table 7 below, were mixed and granulated in the proportions shown and compressed into tablets of about 350 mg total tablet weight. The tablets thus prepared were placed in stability chamber at 85° C. and the results of the stability test were recorded in Tables 6 and 7 below.
The tablets thus prepared were placed in stability chamber at 85° C. and the results of the stability test were recorded in Table 8 below. […]
The nature of data set [2]: stability of compound in blends/granulations versus compressed tablets; degradation products analyzed by LC/MS. The conditions noted are these: compressed into direct compression or wet granulation tablets with excipients. The data set is classed as physicochemical. The text has this: Although stable when blended or granulated with one or more commonly used pharmaceutical excipients such as, for example, lactose, tribasic calcium phosphate, silicon dioxide, corn starch, sodium starch glycolate, hydroxypropyl cellulose, hydroxypropyl methylcellulose, gelatin, magnesium stearate, microcrystalline cellulose, mannitol, and sorbitol, substituted 3,5-diene steroidal compounds were unexpectedly found to undergo a significant increase in the rate of formation of degradation products when compressed into tablets with such pharmaceutical excipients. This increase in degradation products occurs whether the substituted 3,5-diene steroidal compound and said excipients are formulated in direct compression tablets or in wet granulation tablets.

The next data set has as its system steroid 5-α-reductase. The conditions noted are these: cited from earlier work.

`CCCCCCCCCCCCCCCCCC(=O)O` [magnesium stearate]: the “stabilizing effect on tablets (percentage of degradation products)” value in data set [1] is reported as “do not exhibit such activity”.
For `CC(C)(C)NC(=O)[C@H]1CC[C@H]2[C@@H]3CC=C4C=C(C(=O)O)CC[C@]4(C)[C@H]3CC[C@]12C` [Compound A, N-t-butyl-androst-3,5-diene-17β-carboxamide-3-carboxylic acid], the “formation of degradation products when compressed into tablets” value in data set [2] was “oxidative additions (the 7 keto oxidation product and others) which only occurred when blends or granulations of Compound A were compressed into tablets”. Also, the “inhibition of steroid 5-α-reductase” value with steroid 5-α-reductase is “useful in inhibiting steroid 5αreductase”.

Source of the values: patent US5665390A, “Stabilized tablet formulation” (SmithKline Beecham Corporation, priority 1993, dated 1997).
